Consider one compound from ChEMBL document CHEMBL5370642, “Synthesis and Bioevaluation of 3-(Arylmethylene)indole Derivatives: Discovery of a Novel ALK Modulator with Antiglioblastoma Activities” (J Med Chem, 2023).

Activity calls are given as the source filed them. The rule behind the calls is not given here.

Series [1] has as its target ALK tyrosine kinase receptor (Mus musculus) (UniProt P97793). As to the kind of experiment: Inhibition of ALK phosphorylation in mouse GL261 cells at 0.5 to 2 uM incubated for 24 hrs by Western blot analysis. The note with it: dose 0.5-2 µM. It counts as cell-based. For orientation: Immunoblotting shows a protein as a band on a membrane.
Series [2] has as its system GL261. The series is described as follows: Anti-proliferative activity against mouse GL261 cells assessed as inhibition rate at 2 uM incubated for 72 hrs by CCK8 assay relative to control. It counts as functional.
The test system of series [3] is GL261. As to the kind of experiment: Induction of autophagy in mouse GL261 cells assessed as increase in LC3BII levels at 0.5 to 2 uM incubated for 24 hrs by Western blot analysis. It counts as functional, cell-based. The note with it: dose 0.5-2 µM.
Series [4] concerns GL261. As to the kind of experiment: Induction of cell cycle arrest in mouse GL261 cells assessed as accumulation at S phase at 1 uM incubated for 72 hrs by flow cytometry (reference value: 13.9%). It counts as functional, cell-based. Background: In flow cytometry, cells or beads pass a laser one at a time.
Series [5] is described as follows: AUC (0 to 8hrs) in C57BL6/J mouse at 5 mg/kg, ip measured upto 24 hrs by LC-MS/MS analysis. More on the design: dose 5 mg/kg, time < 24 hrs, route ip. The note with it: in vivo. It counts as ADME, organism-based.
Series [6] has as its target ALK tyrosine kinase receptor (Mus musculus) (UniProt P97793). As to the kind of experiment: Binding affinity to ALK in mouse GL261 cell lysate assessed as increase in thermal stability of the protein measured after 4 hrs by […] based CETSA analysis. It counts as subcellular.
Series [7] is described as follows: Tmax in C57BL6/J mouse at 5 mg/kg, iv measured upto 24 hrs by LC-MS/MS analysis. The series is classed as ADME, organism-based. The note with it: in vivo.
Another series deals with U-87 MG. As to the kind of experiment: Anti-proliferative activity against human U-87 MG cells assessed as decrease in cell viability at 0.5 to 10 uM by CCK8 assay. It counts as functional, cell-based. The conditions noted are these: U-87MG ATCC, dose 0.5-10 µM, time 24-72 hrs, TDE = time-dependent effect. A general note: Tetrazolium assays rely on reduction of a dye to a coloured formazan, in cell work by metabolically active cells.

Series [8] can be described thus: MRT (0 to infinity) in C57BL6/J mouse at 5 mg/kg, ip measured upto 24 hrs by LC-MS/MS analysis. The series is classed as ADME, organism-based. The conditions noted are these: in vivo.
Series [9] is described as follows: AUC (0 to 8hrs) in C57BL6/J mouse at 5 mg/kg, iv measured upto 24 hrs by LC-MS/MS analysis. It counts as ADME, organism-based. More on the design: dose 5 mg/kg, time < 24 hrs, route iv. The conditions noted are these: in vivo.
Series [10] in a line: MRT (0 to 8hrs) in C57BL6/J mouse at 5 mg/kg, iv measured upto 24 hrs by LC-MS/MS analysis. The note with it: in vivo. The series is classed as ADME, organism-based.
Series [11] deals with ALK tyrosine kinase receptor (Homo sapiens, UniProt Q9UM73). The note with it: U-87 MG, dose 0.5-2 µM, time 24.0 hrs.
Chain of ALK tyrosine kinase receptor (Q9UM73 19-1620 limits assumed): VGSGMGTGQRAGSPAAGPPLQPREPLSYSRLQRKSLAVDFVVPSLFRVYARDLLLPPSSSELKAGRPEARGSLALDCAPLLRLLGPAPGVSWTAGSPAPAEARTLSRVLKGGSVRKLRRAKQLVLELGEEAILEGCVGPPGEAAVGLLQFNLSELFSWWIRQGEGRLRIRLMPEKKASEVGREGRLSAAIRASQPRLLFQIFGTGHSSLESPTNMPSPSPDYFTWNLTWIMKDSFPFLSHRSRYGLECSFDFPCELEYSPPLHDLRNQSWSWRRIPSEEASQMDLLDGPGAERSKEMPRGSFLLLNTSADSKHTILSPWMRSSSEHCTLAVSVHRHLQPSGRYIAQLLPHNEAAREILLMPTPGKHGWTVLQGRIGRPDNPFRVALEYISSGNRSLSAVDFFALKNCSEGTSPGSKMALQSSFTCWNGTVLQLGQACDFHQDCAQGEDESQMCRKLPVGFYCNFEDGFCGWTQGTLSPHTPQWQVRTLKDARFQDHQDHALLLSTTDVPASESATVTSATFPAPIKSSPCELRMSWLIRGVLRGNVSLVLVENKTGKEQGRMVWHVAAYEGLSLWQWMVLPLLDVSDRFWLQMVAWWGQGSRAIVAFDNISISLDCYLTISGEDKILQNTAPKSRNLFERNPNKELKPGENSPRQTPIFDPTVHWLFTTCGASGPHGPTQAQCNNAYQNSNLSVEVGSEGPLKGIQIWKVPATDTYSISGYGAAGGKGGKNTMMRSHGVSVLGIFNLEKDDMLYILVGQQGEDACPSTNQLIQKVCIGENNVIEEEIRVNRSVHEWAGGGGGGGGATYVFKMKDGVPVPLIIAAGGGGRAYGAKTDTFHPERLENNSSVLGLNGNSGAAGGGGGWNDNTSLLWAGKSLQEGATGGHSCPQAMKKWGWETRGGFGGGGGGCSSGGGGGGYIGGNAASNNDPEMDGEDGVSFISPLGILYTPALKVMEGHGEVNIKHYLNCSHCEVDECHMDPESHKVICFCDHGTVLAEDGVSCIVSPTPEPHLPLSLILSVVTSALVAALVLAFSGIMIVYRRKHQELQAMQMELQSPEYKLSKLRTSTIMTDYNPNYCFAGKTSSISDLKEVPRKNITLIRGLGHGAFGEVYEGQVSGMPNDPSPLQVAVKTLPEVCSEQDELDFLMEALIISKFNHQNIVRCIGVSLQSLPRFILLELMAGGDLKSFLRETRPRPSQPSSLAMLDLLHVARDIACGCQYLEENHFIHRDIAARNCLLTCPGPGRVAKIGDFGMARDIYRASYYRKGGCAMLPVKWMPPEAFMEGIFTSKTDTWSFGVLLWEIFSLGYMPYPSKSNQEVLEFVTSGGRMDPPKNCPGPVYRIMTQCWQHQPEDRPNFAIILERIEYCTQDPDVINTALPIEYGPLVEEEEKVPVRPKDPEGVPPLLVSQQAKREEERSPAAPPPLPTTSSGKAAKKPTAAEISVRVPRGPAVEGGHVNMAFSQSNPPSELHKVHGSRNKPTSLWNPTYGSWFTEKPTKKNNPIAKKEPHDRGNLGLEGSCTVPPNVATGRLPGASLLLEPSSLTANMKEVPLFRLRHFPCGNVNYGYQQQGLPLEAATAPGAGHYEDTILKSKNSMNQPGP
Series [12] concerns GL261. The series is described as follows: Induction of apoptosis in mouse GL261 cells assessed as necrotic cells measured at 0.5 to 2 uM after 72 hrs by flow cytometry. The conditions noted are these: dose 0.5-2 µM. It counts as functional, cell-based.
Series [13] is described as follows: AUC (0 to infinity) in C57BL6/J mouse at 5 mg/kg, iv measured upto 24 hrs by LC-MS/MS analysis. The series is classed as ADME, organism-based. Also noted: dose 5 mg/kg, time < 24 hrs, route iv. The note with it: in vivo.
Series [14] in a line: Bioavailability in C57BL6/J mouse at 5 mg/kg, […] measured upto 24 hrs by LC-MS/MS analysis. The series is classed as ADME, organism-based. The note with it: in vivo.
Series [15] concerns GL261. The series is described as follows: Induction of apoptosis in mouse GL261 cells assessed as increase in cleaved caspase 3 level measured at 0.5 to 2 uM after 24 hrs by Western blot analysis. The note with it: dose 0.5-2 µM. It counts as functional, cell-based.

Chain of ALK tyrosine kinase receptor (Mus musculus) (P97793 whole entry): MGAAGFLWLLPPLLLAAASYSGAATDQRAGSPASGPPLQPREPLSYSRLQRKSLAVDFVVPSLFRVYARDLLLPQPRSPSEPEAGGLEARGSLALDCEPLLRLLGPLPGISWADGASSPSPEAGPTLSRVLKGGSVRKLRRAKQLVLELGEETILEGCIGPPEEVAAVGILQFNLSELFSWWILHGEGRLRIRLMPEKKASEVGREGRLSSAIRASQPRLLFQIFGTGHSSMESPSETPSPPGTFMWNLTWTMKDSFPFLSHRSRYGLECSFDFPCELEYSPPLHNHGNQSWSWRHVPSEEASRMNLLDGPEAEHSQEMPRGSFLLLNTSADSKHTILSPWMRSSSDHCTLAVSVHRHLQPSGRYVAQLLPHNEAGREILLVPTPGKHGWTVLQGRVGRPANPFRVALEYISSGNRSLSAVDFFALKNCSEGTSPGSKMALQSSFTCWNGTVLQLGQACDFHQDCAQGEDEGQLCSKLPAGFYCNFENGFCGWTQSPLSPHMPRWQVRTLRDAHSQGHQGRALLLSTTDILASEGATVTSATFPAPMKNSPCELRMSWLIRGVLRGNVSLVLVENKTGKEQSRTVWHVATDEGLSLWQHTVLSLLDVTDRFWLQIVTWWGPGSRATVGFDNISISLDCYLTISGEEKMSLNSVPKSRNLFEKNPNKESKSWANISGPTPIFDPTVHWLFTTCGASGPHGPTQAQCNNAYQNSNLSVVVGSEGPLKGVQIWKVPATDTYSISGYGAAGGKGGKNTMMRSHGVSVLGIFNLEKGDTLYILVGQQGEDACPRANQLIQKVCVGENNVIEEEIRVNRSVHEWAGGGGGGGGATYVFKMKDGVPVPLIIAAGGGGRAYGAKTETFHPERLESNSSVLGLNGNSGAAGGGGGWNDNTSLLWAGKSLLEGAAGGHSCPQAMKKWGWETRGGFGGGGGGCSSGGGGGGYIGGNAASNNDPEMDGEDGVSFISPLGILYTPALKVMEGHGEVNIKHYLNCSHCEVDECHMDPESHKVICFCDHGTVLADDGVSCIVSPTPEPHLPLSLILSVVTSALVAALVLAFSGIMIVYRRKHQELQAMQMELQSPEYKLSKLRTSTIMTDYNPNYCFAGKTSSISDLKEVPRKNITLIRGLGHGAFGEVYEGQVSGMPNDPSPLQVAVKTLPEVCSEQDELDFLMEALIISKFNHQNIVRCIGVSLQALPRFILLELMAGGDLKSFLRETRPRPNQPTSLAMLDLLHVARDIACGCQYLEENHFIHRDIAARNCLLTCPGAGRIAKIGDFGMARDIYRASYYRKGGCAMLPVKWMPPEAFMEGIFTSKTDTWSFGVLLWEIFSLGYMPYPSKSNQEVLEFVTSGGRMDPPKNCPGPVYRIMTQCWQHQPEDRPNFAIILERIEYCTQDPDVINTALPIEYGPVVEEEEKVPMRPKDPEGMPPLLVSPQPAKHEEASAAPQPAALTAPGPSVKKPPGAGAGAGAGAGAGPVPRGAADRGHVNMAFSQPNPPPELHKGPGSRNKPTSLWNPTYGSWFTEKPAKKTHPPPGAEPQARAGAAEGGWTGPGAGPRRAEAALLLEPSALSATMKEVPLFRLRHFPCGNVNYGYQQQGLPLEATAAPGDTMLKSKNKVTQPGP

`Cc1ccc(S(=O)(=O)n2cc(Cc3cc(C)c(O)c(C)c3)c3ccccc32)cc1`: the inhibition result in series [1] and in series [11] was “Active” each time. Besides, the inhibition (commonly the percentage by which the read-out fell short of the control) at 2 µM with GL261 [2] is 80%. For the same compound, the result (with GL261 [3]; in the series on GL261 [4]; in series [6]; with GL261 [12]; in the series on GL261 [15]) was Active. In addition, the AUC(0-t) (as a rule, the area under the concentration-time curve up to a stated or last time point) at 24 h was 340 ng·h/mL in series [5] and 885 ng·h/mL in [9]. Moreover, the Tmax (usually the time from dosing to the highest level) in [7] amounted to 4.8 min. Moreover, in the series with U-87 MG, the Activity entry was “Tde”. The MRT inf (commonly the average time that molecules of a dose stay in the body) in series [8] amounted to 4.6 h. Besides, in [10], the MRT last – broadly, a mean duration of stay, worked out from the concentration-time curve – at 24 h was 37.8 min. In series [13], the AUC(0-inf) (usually total exposure, with the tail of the curve extrapolated) is 925 ng·h/mL. For the same compound, the bioavailability (commonly dose-corrected exposure relative to a reference, in per cent) in series [14] amounted to 38.4%.
